Results on eleven compounds are retold here after US7005274B1, “Methods and compositions for diagnosing and treating arthritic disorders and regulating bone mass” (MIGENIX Corp., priority 1999, dated 2006).

In data set [1] the test system is TC28 cells. In words: Cell viability by LDH release in stressor-exposed chondrocytes. Format: cell-based. As to conditions: for cell viability (LDH release) under SIN-1 / cell viability under NOC-12 / cell viability of cells exposed to SIN-1 or NOC-12: compound 1 μM; for cell viability (LDH release) under SIN-1: 100 μM SIN-1; for cell viability under NOC-12: NOC-12 (250 μM). Here is the method: (§1) This example describes screening assays using defined chondrocyte functions, for identifying agents that protect chondrocytes from mitochondrial stressors, such as energy depletion or reactive free radicals. Chondrocytic TC28 cells were maintained at 37° C., 5% CO2 in monolayer culture in DMEM/Ham's F12 medium (1:1) supplemented with 10% FCS, 1% L-glutamine, 100 U/ml penicillin and […] streptomycin (Omega Scientific, Tarzana, Calif.). To more closely approximate the in vivo physiologic nonadherent state of chondrocytes for monitoring GAG release (FIG. 10), an in vitro culture system was used wherein TC28 cells were transferred to 6-well plates that had been previously coated for 18 hours at 22° C. with the cell adhesion inhibitor poly-2-hydroxymethacrylate (polyHEMA), provided as a 10% (w/v) solution in 95% ethanol, then washed twice with PBS. Complete medium (DMEM/F12 supplemented as described above) was then added to wells, and cells were maintained under these conditions for up to 72 hours (Folkman et al., 1978 Nature 273:345; Reginato et al., 1994 Arthritis Rheum. 37:1338). Maintenance of chondrocyte phenotype was confirmed by RT-PCR determination of gene transcripts encoding the chondrocyte extracellular matrix components type II collagen and aggrecan (Reginato et al., 1994).
Cells were exposed to one of several agonists added to cultures as stressors for 72 hours, in the absence or presence of candidate chondrocyte protective agents (listed in Table 2). According to non-limiting theory, such stressors may act as one or more of a mitochondrial inhibitor, an inducer of altered mitochondrial function, an apoptogen, an energy-depleting agent, or the like. Stressors used in this example included the […] NOC-12 (N-ethyl-2-(1-ethyl-2-hydroxy-2-nitrosohydrazino)ethanamine; Calbiochem, La Jolla, Calif.); the peroxynitrite donor SIN-1 (3-morpholinosydnonimine, HCl; Calbiochem); and the inflammatory cytokine human recombinant interleukin-1 beta (IL-1β, Calbiochem). Cytotoxicity was determined using the lactate dehydrogenase release assay (Promega, Madison, Wis.) as described above and according to the manufacturer's instructions, and chondrocyte intracellular ATP was determined using the luciferase assay as described above in Example 1.

Data set [2] deals with TC28 cells. In words: GAG release, dimethylene blue dye binding. Type of data set: cell-based. As to conditions: for GAG release caused by stressor: TC28 nodules, SIN-1 100 μM, NOC-12 25 μM, IL-1β. Here is the method:
as §1
Glycosaminoglycan (GAG) release is widely believed to be a cardinal event in the pathogenesis of osteoarthritis, and is stimulated by IL-1β (see, e.g., Sztrolovics et al., 1999 Biochem. J. 339:571 and references cited therein). Therefore, GAG release was determined in chondrocytes maintained on polyHEMA-coated plates as follows: Chondrocyte cartilage “nodules” from the polyHEMA cultures were digested for one hour with papain, 300 μg/ml in 20 mM sodium phosphate-pH 6.8, 1 mM EDTA, 2 mM dithiothreitol. Released GAG was assayed colorimetrically by dimethylene blue (DMB) dye binding according to established procedures (Farndale et al., 1986 Biochim. Biophys. Acta 883:173; Sztrolovics et al., 1999 Biochem. J. 339:571). Briefly, aliquots of the papain digest were added to a dye solution containing 46 μM DMB, 40 mM glycine-pH 3.0, 40 mM NaCl and read immediately in a spectrophotometer at 525 nm. Quantification of GAG in the samples was achieved from calculations using a standard curve generated with samples of 1–50 μg/ml chondroitin sulfate. Mitochondrial protecting agents based on derivatized creatine, ethoxyquin and guanidine compounds were synthesized essentially as disclosed in WO99/37294 (PCT/US99/01718) and WO99/55321 (PCT/US99/09990), which are hereby incorporated by reference in their entireties; these agents were tested as representative candidate chondrocyte protective agents.

Data set [3] concerns TC28 cells. In words: Intracellular ATP, luciferase assay. Type of data set: cell-based. As to conditions: for intracellular ATP levels relative to control culture not exposed to NOC-12: NOC-12 alone or in the presence of 1 μM compound. Here is the method: (§2) Levels of total cellular ATP were measured by a modification of luciferase-based assays known in the art (Lin et al., Anal. Biochem. 24:531–540, 1968); related assays and modifications may alternatively be used (see, e.g., Turman et al., In Vitro Cell. Dev. Biol. Anim. 32:1–4, 1996, for an assay format that uses a fluorescent plate reader). In brief, 2×10^6 cells were washed and pelleted in 10 ml phosphate-buffered saline (PBS). The cell pellets were snap-frozen in a dry ice/ethanol bath, after which […] of 0.2 M HCl was added, followed by 0.3 ml of 2 mM glycine (pH 9.0). Samples were heated at 100° C. for five minutes, then placed on ice. A standard curve was developed using 0 to 500 pmol of purified ATP (disodium salt). One hundred (100) μl of the cell extract, or purified ATP standard, was added to an equal volume of the ATP assay mixture (containing MgSO4, DTT, EDTA, luciferase and luciferin, all from the Sigma Bioluminescence Assay Kit and all diluted 1:25). Following a 5 second incubation and 15 second integration, samples were read on a TD-20/20 Luminometer (Turner Designs, Sunnyvale, Calif.).

Data set [4] deals with articular chondrocytes and TC28 cells. In words: Oxygen consumption with a Clark electrode (respiratory rate). Format: cell-based, human. The following applies: SIN-1 500 μM; NOC-12 250 μM; antimycin A and oligomycin concentration not stated.
For data set [5] the test system is unchanged. In words: Intracellular ATP, statements covering both cell preparations. Format: cell-based, human. As to conditions: for intracellular ATP levels (qualitative): SIN-1 500 μM, NOC-12 250 μM, antimycin A and oligomycin concentration not stated. Here is the method: as §2
In FIG. 1A, articular chondrocytes or TC28 cells (5×10^5) in 5 ml were studied in triplicate in the presence of antimycin (or oligomycin, see next Example) at the indicated concentrations, administered every 24 hours for a total of 72 hours, and total intracellular ATP concentrations were determined as described above. Viability determinations are shown in FIG. 1B, where 2×10^4 chondrocytes or TC28 cells in 0.2 ml were cultured in triplicate in the presence of antimycin (or oligomycin) at the indicated concentrations, administered every 24 hours for a total of 72 hours, and cell viability was determined by trypan blue dye exclusion (>200 cells counted for each replicate).

In data set [6] the test system is Articular Chondrocytes. In words: Intracellular ATP, luciferase assay. Format: cell-based, human. The following applies: 10 ng/ml TGFβ, 0.025 mM antimycin A, 0.02 μg/ml oligomycin; mean ± SD. Here is the method: Human articular cartilage chondrocytes were obtained by collagenase digestion of articular cartilage samples, and subsequent monolayer culture, essentially as described by Terkeltaub et al. (Arthritis Rheum. 41:2152–2164, 1998). The starting material for these primary cultures was human articular cartilage excised during surgical joint replacement, or obtained at autopsy from normal or osteoarthritic joints. The articular chondrocytes were grown in Dulbecco's modified Eagle's Medium with high glucose (DMEM high glucose, Life Technologies, Inc. Grand Island, N.Y.) with 10% fetal calf serum (FCS), 1% glutamine, 100 U/ml penicillin and 50 μg/ml streptomycin (all reagents from Sigma, St. Louis, Mo., unless otherwise noted). Typically, only first passage cells were used in the studies described herein.
as §2, with “Calif.). […]” for “Calif.).”

As for `Cc1cc(O)ccc1NC(=N)N` [A], in data set [1], the “cell viability (LDH release) under SIN-1” value is “protective effect on cell viability” and the “cell viability under NOC-12” value is listed as “moderating effect of the test compounds on NO cytotoxicity”.
In the same order, the values of `N=C1NCCN1CC(=O)O` [B] are “protective effect on cell viability” and “moderating effect of the test compounds on NO cytotoxicity”.
On to `CN(CC(=O)O)C(=N)N` [C], for which the “GAG release induced by SIN-1 or NOC-12” value in data set [2] (SIN-1 (100 μM) or NOC-12 (25 μM), 1 μM compound, not shown) is “the severity of this release was moderated”. In addition, the “IL-1β-stimulated GAG release” value in data set [2] (TC28 nodules on polyHEMA-coated plates) is given as “somewhat attenuated the degree of GAG release”. Also, in data set [1], the “cell viability (LDH release) under SIN-1” value is listed as “protective effect on cell viability” and the “cell viability under NOC-12” value is “moderating effect of the test compounds on NO cytotoxicity”.
With `N=C(N)Nc1ccc(N2CCOCC2)cc1` [E], the “intracellular ATP levels relative to control culture not exposed to NOC-12” value in data set [3] is on record as “significant depression of intracellular ATP”. In addition, in data set [1], the “cell viability under NOC-12” value was “significantly higher viability”.
For the compound `CC(=N)NNCC1(C)CCc2c(C)c(O)c(C)c(C)c2O1` (centres unmarked) [J], in data set [1], the “cell viability of cells exposed to SIN-1 or NOC-12” value is reported as “demonstrated chondrocyte protective activity”.
For the compound `CN(C)c1cc(C(C)(C)c2ccc(O)c(N(C)C)c2)ccc1O` [K], in data set [1], the “cell viability of cells exposed to SIN-1 or NOC-12” value is “demonstrated chondrocyte protective activity”.
Still for that read-out and setting: the same measure for `CC(C)(c1ccc(O)cc1)c1ccc(O)c(N)c1` [L]: “demonstrated chondrocyte protective activity”.
Take `CCNCCN(CC)N(O)N=O` [NOC-12, N-ethyl-2-(1-ethyl-2-hydroxy-2-nitrosohydrazino)ethanamine]: the “intracellular ATP levels relative to control culture not exposed to NOC-12” value in data set [3] is given as “significant depression of intracellular ATP”. Besides, the “GAG release caused by stressor” value in data set [2] is “also released GAG”. In addition, the respiratory rates entry in data set [4] is reported as “markedly inhibited respiratory rates”. In addition, the “intracellular ATP levels (qualitative)” value in data set [5] is given as “depressed intracellular ATP levels”.
`Nc1c[n+](N2CCOCC2)no1.[Cl-]` [SIN-1, 3-morpholinosydnonimine, HCl]: the “GAG release caused by stressor” value in data set [2] was “also released GAG”. Further, in data set [4], the respiratory rates result is given as “markedly inhibited respiratory rates”. The “intracellular ATP levels (qualitative)” value in data set [5] was “depressed intracellular ATP levels”.
As to “IL-1β: inflammatory cytokine human recombinant interleukin-1 beta”, in data set [3] (TC28 cells), the “effect of stressor on intracellular ATP levels” value was “did not cause a decrease in intracellular ATP levels”. In data set [2], the “GAG release caused by stressor” value is “IL-1β-stimulated GAG release”. Besides, the “effect of stressor on viability” value in data set [1] (TC28 cells) is on record as “did not cause a decrease”.
Regarding TGFβ, the “ATP (pmoles/μg DNA):TC28 cells” value in data set [3] (10 ng/ml TGFβ, 0.025 mM antimycin A, 0.02 μg/ml oligomycin, mean ± SD) was 801.6 ± 4.9 pmoles/μg DNA. In data set [6], the “ATP (pmoles/μg DNA): Articular Chondrocytes” value was 1,158 ± 6.9 pmoles/μg DNA. The “increase of intracellular ATP” value in data set [5] (chondrocytes, assessed 72 hours after treatment) was “about 3 fold”.
